Experimental data published in patent publication US20260108527A1, “POLO LIKE KINASE 4 INHIBITORS” (ORIC Pharmaceuticals, Inc., priority 2022, published 2026).

How the values were obtained:
CHP134 = CHP134 CellTiter-Glo (CTG) Assay; assay type: cell-based; settings: Homo sapiens, CHP-134, 120 h; viable cells by CellTiter-Glo after 5 days
Summary of the method: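 CHP134 cells were seeded at 200 cells/well for 16 h, then treated in quadruplicate with nine-point 1:3 serial dilutions at 37 °C, 5% CO2. Viable cells were read by CellTiter-Glo luminescence after 5 days, and IC50 values were derived from the dose-response curves.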

[1] = target: T1, human recombinant Aurora A (Homo sapiens, UniProt O14965); test: Aurora A Kinase Biochemical Assay (ADP-Glo); settings: selectivity ratio; Aurora A 2.5 nM, 20 μM ATP
T1 construct: purchased ThermoFisher PR5935A
T1 sequence (O14965 1-403): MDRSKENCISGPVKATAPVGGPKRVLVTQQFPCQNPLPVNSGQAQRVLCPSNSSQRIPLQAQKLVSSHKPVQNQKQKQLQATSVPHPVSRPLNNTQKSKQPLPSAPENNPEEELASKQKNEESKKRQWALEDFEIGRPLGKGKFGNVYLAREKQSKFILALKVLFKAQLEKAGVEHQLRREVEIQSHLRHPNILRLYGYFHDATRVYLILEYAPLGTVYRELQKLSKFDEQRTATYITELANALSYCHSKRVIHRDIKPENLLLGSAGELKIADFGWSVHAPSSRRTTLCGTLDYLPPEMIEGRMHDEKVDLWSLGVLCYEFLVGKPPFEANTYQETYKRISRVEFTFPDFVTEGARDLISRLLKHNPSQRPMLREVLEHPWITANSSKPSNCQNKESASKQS
Summary of the method: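 Human recombinant Aurora A at 2.5 nM final was preincubated with compound (11-point, 3-fold titration) for 15 min at RT, then reacted with 20 μM ATP and 4.7 μM MBP for 2 h at RT in HEPES pH 7.5 buffer. ADP formed was read by ADP-Glo luminescence; IC50 from four-parameter fit.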

[2] = target: T2, human recombinant Aurora B (Homo sapiens, UniProt Q96GD4); test: Aurora B Kinase Biochemical Assay (ADP-Glo); settings: selectivity ratio; Aurora B 10 nM, 114 μM ATP
T2 construct: purchased ThermoFisher PR9210B
Summary of the method: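 Aurora B (10 nM) was pre-incubated with compound for 15 min, then reacted with 114 μM ATP and 4.7 μM MBP for 2 h at RT in 50 mM HEPES pH 7.5, 10 mM MgCl2, 1 mM DTT. ADP was read by ADP-Glo luminescence, and IC50 values came from four-parameter fits of 11-point, 3-fold titrations in duplicate.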

T2 sequence (Q96GD4 whole entry): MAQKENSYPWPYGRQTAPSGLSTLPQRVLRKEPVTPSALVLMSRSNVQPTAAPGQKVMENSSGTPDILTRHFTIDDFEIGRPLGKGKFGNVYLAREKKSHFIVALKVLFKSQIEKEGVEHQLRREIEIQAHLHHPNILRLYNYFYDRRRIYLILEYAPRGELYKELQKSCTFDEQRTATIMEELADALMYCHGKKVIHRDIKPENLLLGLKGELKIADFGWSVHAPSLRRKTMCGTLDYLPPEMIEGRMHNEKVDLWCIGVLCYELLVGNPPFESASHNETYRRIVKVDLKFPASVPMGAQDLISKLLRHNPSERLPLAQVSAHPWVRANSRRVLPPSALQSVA

| [Aurora A IC50 (nM)]/[PLK4 IC50 (nM)] [1] | [Aurora B IC50 (nM)]/[PLK4 IC50 (nM)] [2] | SMILES | IC50 (CHP134) [nM] |
| --- | --- | --- | --- |
| 325.6348 | 1218.8633 | COc1ccc2c(c1)[C@]1(C[C@H]1c1ccc3c(Nc4cc(-c5ccon5)ccc4OC)n[nH]c3c1)C(=O)N2 [Example 32, (1R,2S)-5′-methoxy-2-{3-[2-methoxy-5-(1,2-oxazol-3-yl)anilino]-1H-indazol-6-yl}spiro[cyclopropane-1,3′-indol]-2′(1′H)-one] | 106 |
| 1496.6799 | 45644.0903 | CCOc1ccc(-c2nccs2)cc1Nc1n[nH]c2cc([C@@H]3C[C@@]34C(=O)Nc3ccc(OC)cc34)ccc12 [Example 33, (1R,2S)-2-{3-[2-ethoxy-5-(1,3-thiazol-2-yl)anilino]-1H-indazol-6-yl}-5′-methoxyspiro[cyclopropane-1,3′-indol]-2′(1′H)-one] | 41.4 |
| 14827.5862 | 46598.3224 | CCOc1cnc(-c2nccs2)cc1Nc1n[nH]c2cc([C@@H]3C[C@@]34C(=O)Nc3ccc(OC)cc34)ccc12 [Example 34, (1R,2S)-2-(3-{[5-ethoxy-2-(1,3-thiazol-2-yl)pyridin-4-yl]amino}-1H-indazol-6-yl)-5′-methoxyspiro[cyclopropane-1,3′-indol]-2′(1′H)-one] | 139 |
| 727.2189 | 2740.5325 | CCOc1ncc(-c2nccs2)nc1Nc1n[nH]c2cc([C@@H]3C[C@@]34C(=O)Nc3ccc(OC)cc34)ccc12 [Example 35, (1R,2S)-2-(3-{[3-ethoxy-6-(1,3-thiazol-2-yl)pyrazin-2-yl]amino}-1H-indazol-6-yl)-5′-methoxyspiro[cyclopropane-1,3′-indol]-2′(1′H)-one] | 13.8 |
| 27839.6436 | 27839.6436 | CCOc1ccc(-c2cnn(C)c2)cc1Nc1n[nH]c2cc([C@@H]3C[C@@]34C(=O)Nc3ccc(OC)cc34)ccc12 [Example 37, (1R,2S)-2-{3-[2-ethoxy-5-(1-methyl-1H-pyrazol-4-yl)anilino]-1H-indazol-6-yl}-5′-methoxyspiro[cyclopropane-1,3′-indol]-2′(1′H)-one] | 442 |
| 2756.5515 | 559.1 | CCOc1cc(-n2cncn2)cnc1Nc1n[nH]c2cc([C@@H]3C[C@@]34C(=O)Nc3ccc(OC)cc34)ccc12 [Example 38, (1R,2S)-2-(3-{[3-ethoxy-5-(1H-1,2,4-triazol-1-yl)pyridin-2-yl]amino}-1H-indazol-6-yl)-5′-methoxyspiro[cyclopropane-1,3′-indol]-2′(1′H)-one] | 266 |
| 1647.6978 | 764.1 | COc1ccc2c(c1)[C@]1(C[C@H]1c1ccc3c(Nc4cc(-c5cnn(CC(F)F)c5)ccc4OC)n[nH]c3c1)C(=O)N2 [Example 39, (1R,2S)-2-(3-{5-[1-(2,2-difluoroethyl)-1H-pyrazol-4-yl]-2-methoxyanilino}-1H-indazol-6-yl)-5′-methoxyspiro[cyclopropane-1,3′-indol]-2′(1′H)-one] | 202 |
| 288.4 | 410.7334 | COc1ccc2c(c1)[C@]1(C[C@H]1c1ccc3c(Nc4nc(-c5cnco5)ncc4OC)n[nH]c3c1)C(=O)N2 [Example 40, (1R,2S)-5′-methoxy-2-(3-{[5-methoxy-2-(1,3-oxazol-5-yl)pyrimidin-4-yl]amino}-1H-indazol-6-yl)spiro[cyclopropane-1,3′-indol]-2′(1′H)-one] | 237 |
| 4711.9113 | 8707.7562 | CCOc1ncc(-c2nccs2)cc1Nc1n[nH]c2cc([C@@H]3C[C@@]34C(=O)Nc3ccc(OC)cc34)ccc12 [Example 41, (1R,2S)-2-(3-{[2-ethoxy-5-(1,3-thiazol-2-yl)pyridin-3-yl]amino}-1H-indazol-6-yl)-5′-methoxyspiro[cyclopropane-1,3′-indol]-2′(1′H)-one] | 131 |
| 157.8304 | 465.6990 | COc1ccc2c(c1)[C@]1(C[C@H]1c1ccc3c(Nc4cc(-c5cocn5)cnc4OC)n[nH]c3c1)C(=O)N2 [Example 42, (1R,2S)-5′-methoxy-2-(3-{[2-methoxy-5-(1,3-oxazol-4-yl)pyridin-3-yl]amino}-1H-indazol-6-yl)spiro[cyclopropane-1,3′-indol]-2′(1′H)-one] | 281 |
| 702.5 | 844.375 | CCOc1cnc(-c2nccs2)nc1Nc1n[nH]c2cc([C@@H]3C[C@@]34C(=O)Nc3ccc(OC)cc34)ccc12 [Example 44, (1R,2S)-2-(3-{[5-ethoxy-2-(1,3-thiazol-2-yl)pyrimidin-4-yl]amino}-1H-indazol-6-yl)-5′-methoxyspiro[cyclopropane-1,3′-indol]-2′(1′H)-one] | 22 |
| 42971.2230 | 8798.5611 | CCOc1cnc(C#CC(C)(C)O)nc1Nc1n[nH]c2cc([C@@H]3C[C@@]34C(=O)Nc3ccc(OC)cc34)ccc12 [Example 45, (1R,2S)-2-(3-((5-ethoxy-2-(3-hydroxy-3-methylbut-1-yn-1-yl)pyrimidin-4-yl)amino)-1H-indazol-6-yl)-5′-methoxyspiro[cyclopropane-1,3′-indolin]-2′-one] | 890 |
| 469.9759 | 469.6557 | COc1ccc2c(c1)[C@]1(C[C@H]1c1ccc3c(Nc4cc(-c5cnn(CC(F)F)c5)cnc4OC)n[nH]c3c1)C(=O)N2 [Example 46, (1R,2S)-2-(3-((5-(1-(2,2-difluoroethyl)-1H-pyrazol-4-yl)-2-methoxypyridin-3-yl)amino)-1H-indazol-6-yl)-5′-methoxyspiro[cyclopropane-1,3′-indolin]-2′-one] | 370 |
